According to patent US20100136034A1, “NOVEL MULTIMERIC MOLECULES, A PROCESS FOR PREPARING THE SAME AND THE USE THEREOF FOR MANUFACTURING MEDICINAL DRUGS” (CENTRE NATIONAL DE LA RECHERCHE SCIENTIFIQUE, priority 2007, published 2010):
Non-standard residues stand in square brackets, D forms with d. No end group written: not given here. Ahx = NCCCCCC(=O)O

Assays:
[1] = test system: Burkitt's lymphoma RAJI cells; experiment: Induction of apoptosis in Burkitt's lymphoma RAJI cells (drop in mitochondrial transmembrane potential, DiOC6(3), flow cytometry); type: cell-based; settings: 16 hours incubation with CD40L analog, FIG. 5A
Experimental: Burkitt's lymphoma (RAJI) was cultured in RPMI 1640 medium (Cambrex Bioscience, Verviers, Belgium) supplemented with 10% decomplemented foetal calf serum (FBS) and gentamycin (10 μg/ml). For assaying apoptosis, cells (1×10^6/ml) were incubated at 37° C. in 96-well plates, at the specified concentrations of CD40L analogs, in a final volume of 200 μl. After incubation for 16 hours, cell apoptosis was measured as described herein below.
To this end, cells were pulsed with DiOC6(3) (Interchim, Montluçon, France)) at a final concentration of 40 nM for the last 45 minutes of culturing.
Cells were subsequently washed, resuspended in 300 μl of PBS and analyzed by flow cytometry. Results (FIG. 5A) are expressed in percentage of specific apoptosis according the following formula: % of specific apoptosis=[(% of dead treated cells−% of dead control cells)×100]/(100−% de dead control cells).
Cells were analyzed by a FACSCalibur® instrument. At least 25000 pulse is events were acquired for each experiment using the CellQuest 3.3 software (Becton Dickinson, Pont de Claix, France) and data were analyzed using the WinMDI 2.8 software (Joseph Trotter, Scripps Research Institute, http://facs.scripps.edu/software.html).

[2] = test system: murine spleen B cells; experiment: Spleen B cell proliferation ([3H]-thymidine uptake); type: cell-based, BALB/c mice; settings: ligand alone, without anti-CD40 antibody 3/23; 72 hours; FIG. 5B
Experimental: Spleens were surgically removed from BALB/c mice aged from 5 to 12 weeks. Spleen B cells were prepared by positive selection using magnetic beads coated with monoclonal anti-CD19 antibodies (MACS, Milteny biotech, Germany). This fraction contains over 95% of B220^+ cells. B cells (3×10^6/ml) were next cultured in RPMI 1640 medium supplemented with 10% complement depleted FBS, gentamycin (10 μg/ml), 25 mM HEPES and […] β-mercaptoethanol in presence of CD40L analogs. Cells were pulsed with 1 μCi/well of tritiated thymidine (ICN, Irvine, Calif.) for the last 20 hours of culturing and the uptake of [^3H]-thymidine as expressed in cpm was measured after 72 hours using a Matrix 9600 model direct 13 counter (Packard, Meriden, Conn.). Results (FIG. 5B) are expressed as a stimulation index corresponding to cpm obtained for cultures with CD40L analogs divided by cpm obtained for cultures without CD40L analogs. Mice used in this study were raised in our animal housing facilities which are licensed by the french veterinary administration under number D-67-482-2.

L41: dimeric ligand by click chemistry: dimerized macrocycle IV.25 coupled to pentapeptide P1 (Lys-Gly-Tyr-Tyr-Ahx), deprotected (peptide KGYY[Ahx]; chain AKKKAK; also: dimerized macrocycle IV.25 (cyclised hexapeptide) joined by click chemistry (triazole) to pentapeptide P1 (Lys-Gly-Tyr-Tyr-Ahx), D-residues and non-natural residues not placed)
percentage of specific apoptosis [1]: induces a Burkitt lymphoma (RAJI) specific apoptosis percentage | B cell proliferation (stimulation index, [3H]-thymidine uptake) [2]: induces alone murine spleen B cell proliferation
